Data set [1] deals with cholesterol. To be noted: clinical use; J. K. Reddy et al., Nature, Vol. 283, 397-398, 1980; cited from earlier work.
Data set [2] in a line: Test of acute toxicity (LD50) in mice (Experiment 6). It counts as in vivo. To be noted: mouse, in vivo, po, orally, 7 days observation, Weil method. An excerpt: ddY male mice (weighing 20-25 g, one group: 5 mice) were orally administered with a suspension of the test compound in 3 w/v % aqueous gum arabic solution.
In data set [3] the test system is hypercholesterolemic mice (plasma cholesterol). Nature of the data set: Blood cholesterol lowering activity in hypercholesterolemic mice (Experiment 3). It counts as in vivo, ddY male mice. To be noted: dose per once 100 mg/kg, orally, three times. An excerpt: (2) Test method: It was done by a method similar to that described in H. Ozawa, Screening of Pharmaceutical Activities for Development of New Drugs - Recent Movement and Practice, Vol. 1, 84-86, 1984 issued by […] Shoin (Tokyo). ddY male mice (weighing 10 - 12 g, one group: 10 mice) were fed with hypercholesterol feed [prepared by mixing CE-2 Feed (manufactured by CLEA JAPAN INC.) with cholesterol 1 w/w %, cholic acid 0.5 w/w % and sucrose 10 w/w %]. After 7 days from the starting of feeding with the hypercholesterol feed, and thereafter 6 hours and further 24 hours (totally three times), a suspension of the test compound in 3 w/v % aqueous gum arabic solution was orally administered. 3 hours after the final administration of the test compound, blood was collected from orbital vessel with hematocrit capillary (manufactured by TERUMO Corporation, treated with heparin). The blood was centrifuged at 10,000 r.p.m. for 2 minutes to collect blood plasma. The plasma cholesterol was measured in the same manner as described in Experiment 1. From the data thus obtained, a mean value (X) of the plasma cholesterol level in the no test compound-administering group and a mean value (Y) of the plasma cholesterol level in the test compound-administering group were calculated, and the significant difference between them was tested (t-test). From the resulting data, the percentage change of plasma cholesterol in the test compound-administering group was calculated by the following equation. [formula]

The test system of data set [4] is rats fed with normal feed (serum cholesterol). Nature of the data set: Blood cholesterol lowering activity in rats fed with normal feed (Experiment 1). The data set is classed as in vivo, Wistar male rats. To be noted: dose per once 100 mg/kg, once a day for 7 days. As for the experimental part:
It was done by a method similar to that of A. V. Ginocchio et al. (cf. A. V. Ginocchio et al., Arzneim.Forsch./Drug Res., Vol. 30, 2032-2034, 1980).
Wistar male rats (weighing 100-130 g, one group: 6 rats) were administered with a suspension of the test compound in 3 w/v % aqueous gum arabic solution once a day for 7 days. 24 hours after the final administration of the test compound, under light anesthesia with ether, the femoral artery and vein were cut and blood was collected therefrom. The blood was centrifuged at 3,000 r.p.m. for 10 minutes to collect serum. The serum cholesterol was measured by an enzymatic method using an agent for measuring total cholesterol (Determiner® TC "5", manufactured by Kyowa Medex Co., Ltd.) (cf. Charles C. Allain et al., Clin. Chem., Vol. 20, 470-475, 1974).
From the data thus obtained, a mean value (X) of the serum cholesterol level in the group to which no test compound was administered and a mean value (Y) of the serum cholesterol level in the group to which the test compound was administered were calculated, and the significant difference between them was tested (t-test). From the resulting data, the percentage change of serum cholesterol in the test compound-administering group was calculated by the following equation. [formula]

Data set [5] deals with mice fed with normal feed (serum cholesterol). Nature of the data set: Blood cholesterol lowering activity in mice fed with normal feed (Experiment 2). The data set is classed as in vivo, ddY male mice. To be noted: 7 days; for Serum cholesterol level, mean ± S.E.: *** p < 0.001; for Percentage change of serum cholesterol: vs untreated group. The source says: (2) Test method: It was done by a method similar to that of H. B. Right et al. (cf. H. B. Right et al., J. Med. Chem., Vol. 7, 113-115, 1964). ddY male mice (weighing 21-23 g, one group: 10 mice) were fed with a mixture of the test compound with powdery feed CE-2 (manufactured by CLEA JAPAN INC.) for 7 days. When the mice fed with the feed mixed with the test compound (test compound-administering group) and the mice fed with the feed mixed with no test compound (no test compound-administering group) were compared as to the feed uptake amount and body weight, there was observed no difference between two groups. After feeding for 7 days, under light anesthesia with ether, the femoral artery and vein were cut and blood was collected therefrom. The blood was centrifuged at 3,000 r.p.m. for 10 minutes to collect serum. The serum cholesterol was measured in the same manner as described in Experiment 1. From the data thus obtained, a mean value (X) of the serum cholesterol level in the no test compound-administering group and a mean value (Y) of the serum cholesterol level in the test compound-administering group were calculated, and the significant difference between them was tested (t-test). From the resulting data, the percentage change of serum cholesterol in the test compound-administering group was calculated by the following equation. [formula]

Data set [6] deals with mice (liver). Put plainly: Test of hepatic toxicity in mice, weight of liver (Experiment 5). The data set is classed as in vivo, ddY male mice. To be noted: 7 days; for Percentage change of weight of liver: vs untreated group. The source says:
ddY male mice (weighing 21-23 g, one group: 10 mice) were fed with a mixture of the test compound with powdery feed CE-2 (manufactured by CLEA JAPAN INC.) for 7 days. When the mice fed with the feed mixed with the test compound (test compound-administering group) and the mice fed with the feed mixed with no test compound (no test compound-administering group) were compared as to the feed uptake amount and body weight, there was observed no difference between two groups. After feeding for 7 days, under light anesthesia with ether, the liver was taken out, and the weight thereof was measured.
(§1) From the data thus obtained, a mean value (X) of the weight of liver in the no test compound-administering group and a mean value (Y) of the weight of liver in the test compound-administering group were calculated, and the significant difference between them was tested (t-test). From the resulting data, the percentage change of weight of liver in the test compound-administering group was calculated by the following equation. [formula]

In data set [7] the test system is rats (liver). Nature of the data set: Test of hepatic toxicity in rats, weight of liver (Experiment 4). To be noted: dose per once 100 mg/kg, orally, once a day for 7 days. It counts as in vivo, Wistar male rats. As for the experimental part:
Wistar male rats (weighing 100-130 g, one group: […]) were orally administered with a suspension of the test compound in 3 w/v % aqueous gum arabic solution once a day for 7 days. 24 hours after the final administration of the test compound, under light anesthesia with ether, the liver was taken out and the weight thereof was measured.
as §1

Where [8] appears, read: *** p < 0.001 (compound of this invention).
The mark [9] stands for this setting: conc. of test compd. in feeds 0.025%.
Where [10] appears, read: conc. of test compd. in feeds 0.05%.
The mark [11] stands for this setting: conc. of test compd. in feeds 0.1%.

Structures are written as SMILES. A value given as a limit tells only on which side of the number the result lay.

Turning to `CCOC(=O)C(C)(C)Oc1ccc(Cl)cc1` [clofibrate, ethyl p-chlorophenoxyisobutyrate], the side effect result in data set [1] is “hepatic toxicity”.
Consider `CC(C)(Sc1cc(C(C)(C)C)c(O)c(C(C)(C)C)c1)Sc1cc(C(C)(C)C)c(O)c(C(C)(C)C)c1` [Reference compound, reference compound], for which the LD50 at 168 h in data set [2] was more than 5000 mg/kg. The “Plasma cholesterol level, mean ± S.E.” value in data set [3] (setting [8]) turned out to be 386.2 ± 10.5 mg/dL. Moreover, the “Percentage change of plasma cholesterol” value in data set [3] (vs untreated group) was -13.4%. Moreover, the “Serum cholesterol level, mean ± S.E.” value in data set [4] (setting [8]) amounted to 70.8 ± 2.0 mg/dL; in data set [5] (setting [9]) it was 121.7 ± 3.1 mg/dL; in data set [5] (setting [10]), 104.8 ± 4.4 mg/dL; in data set [5] (setting [11]), 84.4 ± 5.4 mg/dL. Also, the “Percentage change of serum cholesterol” value in data set [4] (vs untreated group) is reported as -0.1%; in data set [5] (setting [9]), -19.0%; in data set [5] (setting [10]), -30.2%; in data set [5] (setting [11]), -43.8%. The “Weight of liver, mean ± S.E.” value in data set [6] (setting [9]) was 6.66 ± 0.22 g/100 g of body weight; in data set [6] (conc. of test compd. in feeds 0.05%, ** p < 0.01 (reference compound)) it was 7.11 ± 0.13 g/100 g of body weight; in data set [6] (conc. of test compd. in feeds 0.1%, * p < 0.05 (reference compound)), 7.03 ± 0.09 g/100 g of body weight; in data set [7], 4.68 ± 0.09 g/100 g of body weight. The “Percentage change of weight of liver” value in data set [6] (setting [9]) is listed as “+4.9%”; in data set [6] (setting [10]), “+12.0%”; in data set [6] (setting [11]), “+10.7%”; in data set [7] (vs untreated group), -4.7%.

What is called LD50 is the dose at which mortality reaches 50%. A high value points to lower toxicity.

The values above are taken from patent US4742062A, “Benzylpiperazine compound and pharmaceutical composition as hypolipidemic agent” (Kanebo, Ltd., priority 1985, dated 1988).
